Reference: patent US20080076826A1, “POLYMORPHIC CRYSTAL OF 4'-{2-[ (1S, 2R) - 2- HYDROXY -2- (4-HYDROXYPHENYL) -1- METHYLETHYLAMINO] ETHOXY} - 3 - ISOPROPYL-3', 5' -DIMETHYLBIPHENYL - 4 - CARBOXYLIC ACID HYDROCHLORIDE” (KISSEI PHARMACEUTICAL CO., LTD., priority 2005, published 2008)

Columns and labels:
Assay type in all cases: physicochemical
[1] = Solid stability (Test Example 1): purity after storage at 60° C., 75% relative humidity, 5 days; details: stored at 60° C. and relative humidity of 75% for 5 days; hydrochloride
Protocol: Each of (1) amorphous biphenylcarboxylic acid hydrochloride (purity: 97.22%), (2) α type crystal of biphenylcarboxylic acid hydrochloride (purity: 99.56%) and (3) β type crystal of biphenylcarboxylic acid hydrochloride (purity: 99.84%) was stored at 60° C. and at a relative humidity of 75% for 5 days. Purities after the storage were (1) 94.99%, (2) 99.55% and (3) 99.65%, respectively.

[2] = Crystal form stability during preservation under usual conditions or medicine preparation steps; details: preservation under usual conditions (25° C., 60% relative humidity) or during pressurization, pulverization and like preparation steps
[3] = Solid stability (Test Example 2): purity after storage for 8 weeks under four conditions
Protocol: Each of (A) the α type crystal of biphenylcarboxylic acid hydrochloride (purity 99.8%) and (B) the γ type crystal of biphenylcarboxylic acid hydrochloride (purity 99.8%) were stored (1) at 40° C. for 8 weeks, (2) at 60° C. for 8 weeks, (3) at 40° C. and at a relative humidity of 75% for 8 weeks and (4) at 40° C. and at a relative humidity of 90% for 8 weeks.

[4] = stored at 40° C. and relative humidity of 75% for 8 weeks
[5] = stored at 40° C. and relative humidity of 90% for 8 weeks

Compound: Cc1cc(-c2ccc(C(=O)O)c(C(C)C)c2)cc(C)c1OCCN[C@@H](C)[C@H](O)c1ccc(O)cc1.Cl [β type crystal, 4′-{2-[(1S,2R)-2-hydroxy-2-(4-hydroxyphenyl)-1-methylethylamino]ethoxy}-3-isopropyl-3′,5′-dimethylbiphenyl-4-carboxylic acid hydrochloride]
- Purity after the storage [1]: 99.65%
- Change of crystal form [2]: do not cause mutual changes in the crystal forms

Compound: Cc1cc(-c2ccc(C(=O)O)c(C(C)C)c2)cc(C)c1OCCN[C@@H](C)[C@H](O)c1ccc(O)cc1.Cl [amorphous biphenylcarboxylic acid hydrochloride] [4′-{2-[(1S,2R)-2-hydroxy-2-(4-hydroxyphenyl)-1-methylethylamino]ethoxy}-3-isopropyl-3′,5′-dimethylbiphenyl-4-carboxylic acid hydrochloride, reference compound]
- Purity after the storage [1]: 94.99%

Compound: 4′-{2-[(1S,2R)-2-hydroxy-2-(4-hydroxyphenyl)-1-methylethylamino]ethoxy}-3-isopropyl-3′,5′-dimethylbiphenylcarboxylic acid hydrochloride [γ type crystal]
- Purity after the storage [3, 4]: 99.87%
- Purity after the storage [3, 5]: 98.20%
- Purity after the storage ([3]; stored at 40° C. for 8 weeks): 99.82%
- Purity after the storage ([3]; stored at 60° C. for 8 weeks): 99.88%
- Change of crystal form [2]: do not cause mutual changes in the crystal forms

Compound: Cc1cc(-c2ccc(C(=O)O)c(C(C)C)c2)cc(C)c1OCCN[C@@H](C)[C@H](O)c1ccc(O)cc1.Cl [α type crystal, 4′-{2-[(1S,2R)-2-hydroxy-2-(4-hydroxyphenyl)-1-methylethylamino]ethoxy}-3-isopropyl-3′,5′-dimethylbiphenyl-4-carboxylic acid hydrochloride]
- Purity after the storage [1]: 99.55%
- Purity after the storage [3, 4]: 99.58%
- Purity after the storage [3, 5]: 99.51%
- Purity after the storage ([3]; stored at 40° C. for 8 weeks): 99.79%
- Purity after the storage ([3]; stored at 60° C. for 8 weeks): 99.78%
- Change of crystal form [2]: do not cause mutual changes in the crystal forms
